Assay results reported in PubChem BioAssay AID1745844 (Carcinogenic Potency Database (CPDB), 2022).
Several values for one entry are separate records, joined by “and”; a condition that tells them apart may be missing. Identical values can stand only once.

Tested on: rodent lifetime carcinogenesis bioassay, tumor incidence TD50
Test: chronic cancer bioassays in animals – CPDB, compiled studies (AID 1745844)
Settings: inhaled

For `FC(F)=C(F)F`, the TD50 (mouse, strain B6C3F1, females, site: Harderian gland, lesion: adenoma, dosed 95 weeks, study length 95 weeks) was 1470 mg/kg/day, the TD50 (mouse, strain B6C3F1, females, site: all sites + liver, lesion: histiocytic sarcoma + hemangioma + hemangiosarcoma + hepatocellular adenoma + hepatocellular carcinoma, dosed 95 weeks, study length 95 weeks) was 54 mg/kg/day and the TD50 (mouse, strain B6C3F1, females, site: all sites, lesion: hemangioma + hemangiosarcoma, dosed 95 weeks, study length 95 weeks) was 61.3 mg/kg/day. For the same compound, the TD50 (mouse, strain B6C3F1, females, site: all sites, lesion: hemangioma, dosed 95 weeks, study length 95 weeks) was 835 mg/kg/day, the TD50 (mouse, strain B6C3F1, females, site: all sites, lesion: hemangiosarcoma, dosed 95 weeks, study length 95 weeks) was 66.5 mg/kg/day and the TD50 (mouse, strain B6C3F1, females, site: all sites, lesion: histiocytic sarcoma, dosed 95 weeks, study length 95 weeks) was 176 mg/kg/day. It also gave a TD50 (mouse, strain B6C3F1, females, site: any site (literature study), lesion: several types, types named in the paper, dosed 95 weeks, study length 95 weeks) of 48.4 mg/kg/day, a TD50 (mouse, strain B6C3F1, females, site: liver, lesion: hemangioma + hemangiosarcoma, dosed 95 weeks, study length 95 weeks) of 61.3 mg/kg/day and a TD50 (mouse, strain B6C3F1, females, site: liver, lesion: hemangioma, dosed 95 weeks, study length 95 weeks) of 530 mg/kg/day. The TD50 (mouse, strain B6C3F1, females, site: liver, lesion: hemangiosarcoma, dosed 95 weeks, study length 95 weeks) was 66.5 mg/kg/day, the TD50 (mouse, strain B6C3F1, females, site: liver, lesion: hepatocellular adenoma + hepatoblastoma + hepatocellular carcinoma, dosed 95 weeks, study length 95 weeks) was 63.3 mg/kg/day and the TD50 (mouse, strain B6C3F1, females, site: liver, lesion: hepatocellular adenoma + hepatocellular carcinoma, dosed 95 weeks, study length 95 weeks) was 63.3 mg/kg/day. The TD50 (mouse, strain B6C3F1, females, site: liver, lesion: hepatocellular adenoma, dosed 95 weeks, study length 95 weeks) was 217 mg/kg/day, the TD50 (mouse, strain B6C3F1, females, site: liver, lesion: hepatocellular carcinoma, dosed 95 weeks, study length 95 weeks) was 80.8 mg/kg/day and the TD50 (mouse, strain B6C3F1, females, site: lung, lesion: alveolar/bronchiolar adenoma + alveolar/bronchiolar carcinoma + carcinoma, dosed 95 weeks, study length 95 weeks) was 1640 mg/kg/day. It also gave a TD50 (mouse, strain B6C3F1, females, site: lung, lesion: alveolar/bronchiolar adenoma + alveolar/bronchiolar carcinoma, dosed 95 weeks, study length 95 weeks) of 1010 mg/kg/day, a TD50 (mouse, strain B6C3F1, females, site: pituitary gland, lesion: pars distalis adenoma, dosed 95 weeks, study length 95 weeks) of 1450 mg/kg/day and a TD50 (mouse, strain B6C3F1, males, site: Harderian gland, lesion: adenoma + carcinoma, dosed 95 weeks, study length 95 weeks) of 1270 mg/kg/day. It also gave a TD50 (mouse, strain B6C3F1, males, site: Harderian gland, lesion: adenoma, dosed 95 weeks, study length 95 weeks) of 1390 mg/kg/day, a TD50 (mouse, strain B6C3F1, males, site: all sites + liver, lesion: histiocytic sarcoma + hemangioma + hemangiosarcoma + hepatocellular adenoma + hepatocellular carcinoma, dosed 95 weeks, study length 95 weeks) of 71.6 mg/kg/day and a TD50 (mouse, strain B6C3F1, males, site: all sites, lesion: hemangioma + hemangiosarcoma, dosed 95 weeks, study length 95 weeks) of 88.3 mg/kg/day. It also gave a TD50 (mouse, strain B6C3F1, males, site: all sites, lesion: hemangioma, dosed 95 weeks, study length 95 weeks) of 297 mg/kg/day, a TD50 (mouse, strain B6C3F1, males, site: all sites, lesion: hemangiosarcoma, dosed 95 weeks, study length 95 weeks) of 109 mg/kg/day and a TD50 (mouse, strain B6C3F1, males, site: all sites, lesion: histiocytic sarcoma, dosed 95 weeks, study length 95 weeks) of 429 mg/kg/day. For the same compound, the TD50 (mouse, strain B6C3F1, males, site: any site (literature study), lesion: several types, types named in the paper, dosed 95 weeks, study length 95 weeks) was 69.9 mg/kg/day, the TD50 (mouse, strain B6C3F1, males, site: liver, lesion: hemangioma + hemangiosarcoma, dosed 95 weeks, study length 95 weeks) was 87 mg/kg/day and the TD50 (mouse, strain B6C3F1, males, site: liver, lesion: hemangioma, dosed 95 weeks, study length 95 weeks) was 308 mg/kg/day. It also gave a TD50 (mouse, strain B6C3F1, males, site: liver, lesion: hemangiosarcoma, dosed 95 weeks, study length 95 weeks) of 108 mg/kg/day, a TD50 (mouse, strain B6C3F1, males, site: liver, lesion: hepatocellular adenoma + hepatoblastoma + hepatocellular carcinoma, dosed 95 weeks, study length 95 weeks) of 91 mg/kg/day and a TD50 (mouse, strain B6C3F1, males, site: liver, lesion: hepatocellular adenoma + hepatocellular carcinoma, dosed 95 weeks, study length 95 weeks) of 91 mg/kg/day. For the same compound, the TD50 (mouse, strain B6C3F1, males, site: liver, lesion: hepatocellular adenoma, dosed 95 weeks, study length 95 weeks) was 222 mg/kg/day, the TD50 (mouse, strain B6C3F1, males, site: liver, lesion: hepatocellular carcinoma, dosed 95 weeks, study length 95 weeks) was 190 mg/kg/day and the TD50 (mouse, strain B6C3F1, males, site: lung, lesion: alveolar/bronchiolar adenoma + alveolar/bronchiolar carcinoma + carcinoma, dosed 95 weeks, study length 95 weeks) was 216 mg/kg/day. For the same compound, the TD50 (mouse, strain B6C3F1, males, site: lung, lesion: alveolar/bronchiolar adenoma + alveolar/bronchiolar carcinoma, dosed 95 weeks, study length 95 weeks) was 220 mg/kg/day, the TD50 (mouse, strain B6C3F1, males, site: lung, lesion: alveolar/bronchiolar adenoma, dosed 95 weeks, study length 95 weeks) was 348 mg/kg/day and the TD50 (mouse, strain B6C3F1, males, site: lung, lesion: alveolar/bronchiolar carcinoma + carcinoma, dosed 95 weeks, study length 95 weeks) was 830 mg/kg/day. The TD50 (mouse, strain B6C3F1, males, site: thyroid gland, lesion: follicular-cell adenoma + follicular-cell carcinoma, dosed 95 weeks, study length 95 weeks) was 988 mg/kg/day, the TD50 (mouse, strain B6C3F1, males, site: thyroid gland, lesion: follicular-cell adenoma, dosed 95 weeks, study length 95 weeks) was 1440 mg/kg/day and the TD50 (rat, strain Fischer 344, females, site: all sites + liver, lesion: mononuclear-cell leukemia + hemangiosarcoma + hepatocellular adenoma + hepatocellular carcinoma, dosed 103 weeks, study length 104 weeks) was 56.3 mg/kg/day. For the same compound, the TD50 (rat, strain Fischer 344, females, site: all sites, lesion: hemangiosarcoma, dosed 103 weeks, study length 104 weeks) was 886 mg/kg/day, the TD50 (rat, strain Fischer 344, females, site: all sites, lesion: mononuclear-cell leukemia, dosed 103 weeks, study length 104 weeks) was 228 mg/kg/day and the TD50 (rat, strain Fischer 344, females, site: any site (literature study), lesion: several types, types named in the paper, dosed 103 weeks, study length 104 weeks) was 287 mg/kg/day. For the same compound, the TD50 (rat, strain Fischer 344, females, site: kidney, lesion: tubule adenoma + tubule carcinoma, dosed 103 weeks, study length 104 weeks) was 958 mg/kg/day and 1310 mg/kg/day, the TD50 (rat, strain Fischer 344, females, site: kidney, lesion: tubule adenoma, dosed 103 weeks, study length 104 weeks) was 1510 mg/kg/day and the TD50 (rat, strain Fischer 344, females, site: kidney, lesion: tubule carcinoma, dosed 103 weeks, study length 104 weeks) was 7380 mg/kg/day. For the same compound, the TD50 (rat, strain Fischer 344, females, site: liver, lesion: hemangiosarcoma, dosed 103 weeks, study length 104 weeks) was 886 mg/kg/day, the TD50 (rat, strain Fischer 344, females, site: liver, lesion: hepatocellular adenoma + hepatoblastoma + hepatocellular carcinoma, dosed 103 weeks, study length 104 weeks) was 156 mg/kg/day and the TD50 (rat, strain Fischer 344, females, site: liver, lesion: hepatocellular adenoma + hepatocellular carcinoma, dosed 103 weeks, study length 104 weeks) was 156 mg/kg/day. For the same compound, the TD50 (rat, strain Fischer 344, females, site: liver, lesion: hepatocellular adenoma, dosed 103 weeks, study length 104 weeks) was 528 mg/kg/day, the TD50 (rat, strain Fischer 344, females, site: liver, lesion: hepatocellular carcinoma, dosed 103 weeks, study length 104 weeks) was 251 mg/kg/day and the TD50 (rat, strain Fischer 344, males, site: all sites, lesion: mononuclear-cell leukemia, dosed 103 weeks, study length 104 weeks) was 59.7 mg/kg/day. The TD50 (rat, strain Fischer 344, males, site: any site (literature study), lesion: several types, types named in the paper, dosed 103 weeks, study length 104 weeks) was 35.4 mg/kg/day, the TD50 (rat, strain Fischer 344, males, site: kidney, lesion: renal tubule adenoma, bilateral + tubule adenoma + tubule carcinoma, dosed 103 weeks, study length 104 weeks) was 292 mg/kg/day and 367 mg/kg/day and the TD50 (rat, strain Fischer 344, males, site: kidney, lesion: renal tubule adenoma, bilateral + tubule adenoma, dosed 103 weeks, study length 104 weeks) was 242 mg/kg/day and 334 mg/kg/day. It also gave a TD50 (rat, strain Fischer 344, males, site: liver, lesion: hepatocellular adenoma + hepatoblastoma + hepatocellular carcinoma, dosed 103 weeks, study length 104 weeks) of 81.6 mg/kg/day, a TD50 (rat, strain Fischer 344, males, site: liver, lesion: hepatocellular adenoma + hepatocellular carcinoma, dosed 103 weeks, study length 104 weeks) of 81.6 mg/kg/day and a TD50 (rat, strain Fischer 344, males, site: liver, lesion: hepatocellular adenoma, dosed 103 weeks, study length 104 weeks) of 136 mg/kg/day. The TD50 (rat, strain Fischer 344, males, site: liver, lesion: hepatocellular carcinoma, dosed 103 weeks, study length 104 weeks) was 163 mg/kg/day and the TD50 (rat, strain Fischer 344, males, site: testis, lesion: interstitial-cell adenoma, bilateral + interstitial-cell adenoma, dosed 103 weeks, study length 104 weeks) was 27.5 mg/kg/day.
